Several values for one entry are separate records, joined by “and”; a condition that tells them apart may be missing. Identical values can stand only once. Like-named read-outs stand apart in the source and are kept apart here. One block for each compound: values may come before it.
Legend:
[1] = In vivo brain penetration measurement in rat (plasma and brain concentration, Kp"brain"); settings: for Brain concentration / Plasma concentration / concentration at 3.75 h: male Sprague-Dawley rat, end of 3.75 h constant-rate i.v. infusion; for Brain concentration / Plasma concentration / concentration at 3.75 h / Kp at 3.75 h / Kp"brain" (total brain/plasma concentration ratio at steady state): 4 mg/kg; for concentration at 3.75 h / Kp at 3.75 h: male, Sprague-Dawley, iv; for Kp at 3.75 h: brain/plasma; for Kp at 3.75 h / Kp"brain" (total brain/plasma concentration ratio at steady state): 3.75 h i.v. infusion
Method: The femoral vein of male Sprague-Dawley rats (CRL) weighing around 250 g was surgically catheterized at least 72 hours prior to the experiment. The drug was administered as 3.75 h constant-rate intravenous infusion to approach steady state, using a flow rate of 0.8 mL/h, corresponding to dosage of 4 mg/kg (1.067 mg/kg/h, i.e. 1 mg/rat of ˜250 g). The vehicle used was saline.
At the end of the infusion, the rats were anesthetized by inhalation of isoflurane, and blood was collected in a heparinized tube from the abdominal aorta, followed by immediate rinsing of the bloodstream for 2 minutes with saline at a rate of 15 mL/min using a peristaltic pump and left intraventricle cannula (flowing via right atrium). The brain (without cerebellum) was removed, and transferred in a tube and homogenized in two volumes of deionized water using a tissue homogenizer (Precellys24). All samples were stored at −20° C. until analysis. Plasma and brain homogenate sample preparation was performed using solid phase extraction on OASIS® WCX (Waters) and compounds were quantified by reversed phase liquid chromatography and positive electrospray ionization and multiple reaction monitoring mass spectrometry (LC-MS/MS).
This parameter is defined as the ratio of concentrations in brain and blood, Kp“brain” (Cbrain/Cplasma) or log(BB). Log(BB) is the logarithm of the ratio of the steady-state total concentration of a compound in the brain to that in the blood/plasma, log(BB)=log(Cbrain/Cplasma). This parameter depends upon the passive diffusion characteristics, the implication of membrane transporters at the BBB level and the relative drug binding affinity differences between the plasma proteins and brain tissue. Generally, compounds with a brain/plasma ratio of greater than 0.3-0.5 are considered to have sufficient access to the CNS, compounds with a value greater than 1 freely cross the BBB, whereas compounds with a brain/plasma ratio smaller than 0.1 may be unable to enter the CNS.
Thus, the brain penetration of memantine and Compound N^o1 was measured in rat by establishing the brain/plasma ratio, Kp“brain” in triplicate (3 rats/Compound). The three tables below (Tables 1-3) show the results on plasma concentration, brain concentration and calculation of the Kp“brain” for the two compounds memantine and Compound N^° 1.

NMDAR = NMDAR blocking activity, whole-cell voltage clamp (patch-clamp) recordings from rat hippocampal neurons; type: cell-based; settings: read-out: IC50 (NMDAR antagonist activity)
[2] = rat, brain, mean of 3 rats, read-out: Brain concentration, Mean
[3] = rat, rat, mean of 3 rats, read-out: Kp"brain", Mean
[4] = rat, plasma, individual rats, read-out: Plasma concentration
[5] = rat, plasma, mean of 3 rats, read-out: Plasma concentration, Mean
[6] = rat hippocampal neurons, -60 mV, currents evoked by 100 μM NMDA and 20 μM D-serine

- Brain concentration ([1]; individual rats): 0.90 ng/g and 3.57 ng/g and 3.03 ng/g
- Plasma concentration ([1]; individual rats): 23.11 ng/mL and 24.52 ng/mL
- concentration at 3.75 h [1, 2]: 2.5 ng/g
- Kp at 3.75 h [1, 3]: 0.091
- concentration at 3.75 h [1, 4]: 34.8 ng/mL
- concentration at 3.75 h [1, 5]: 27.5 ng/mL
- Kp"brain" (total brain/plasma concentration ratio at steady state) ([1]; rat, individual rats): 0.15 and 0.09 and 0.04
- IC50 (NMDAR; [6]): 9.9 µM
SMILES: CC12CC3CC(C)(C1)CC([N+](C)(C)C)(C3)C2 [Compound No1, N,N,N,3,5-Pentamethyladamantan-1-ammonium iodide]

- IC50 (NMDAR; rat hippocampal neurons, -60 mV, currents evoked by 100 μM NMDA and 20 μM D-serine, listed as Compound N^o1′): ~10 µM
- IC50 (NMDAR; [6]): 11.6 µM
SMILES: CC12CC3CC(C)(C1)CC([N+](C)(C)C)(C3)C2 [Compound No1′]

- IC50 (NMDAR; [6]): 18 µM
SMILES: CC[N+](C)(C)C12CC3CC(C)(CC(C)(C3)C1)C2 [Compound No2, N-Ethyl-N,N-3,5-tetramethyladamantan-1-ammonium iodide]

- IC50 (NMDAR; [6]): 29 µM
SMILES: CCC[N+](C)(C)C12CC3CC(C)(CC(C)(C3)C1)C2 [Compound No3, N-Propyl-N,N-3,5-tetramethyladamantan-1-ammonium iodide]

- IC50 (NMDAR; [6]): 110 µM
SMILES: CCCC[N+](C)(C)C12CC3CC(C)(CC(C)(C3)C1)C2 [Compound No4, N-Butyl-N,N-3,5-tetramethyladamantan-1-ammonium iodide]

- IC50 (NMDAR; [6]): 14.3 µM
SMILES: CC(C)CC[N+](C)(C)C12CC3CC(C)(CC(C)(C3)C1)C2 [Compound No6, N-isoPentyl-N,N-3-5-tetramethyladamantan-1-ammonium iodide]

- IC50 (NMDAR; [6]): 3.5 µM
SMILES: CC12CC3CC(C)(C1)CC([N+](C)(C)CC1CC1)(C3)C2 [Compound No8, N-(Cyclopropylmethyl)-N,N-3,5-tetramethyladamantan-1-ammonium iodide]

- IC50 (NMDAR; [6]): 35.2 µM
SMILES: CC12CC3CC(C)(C1)CC([N+](C)(C)CC1CCCCC1)(C3)C2 [Compound No9, N-(Cyclohexylmethyl)-N,N-3,5-tetramethyladamantan-1-ammonium iodide]

SMILES: CC12CC3CC(C)(C1)CC(N)(C3)C2 [Memantine, memantine]
- Brain concentration ([1]; individual rats): 2977 ng/g and 3237 ng/g
- Plasma concentration ([1]; individual rats): 88.69 ng/mL and 94.85 ng/mL
- concentration at 3.75 h ([1]; rat, brain, individual rats, read-out: Brain concentration): 3340 ng/g
- concentration at 3.75 h [1, 2]: 3180 ng/g
- Kp at 3.75 h ([1]; rat, rat, individual rats, read-out: Kp"brain" (total brain/plasma concentration ratio at steady state)): 27.1
- Kp at 3.75 h [1, 3]: 31.6
- concentration at 3.75 h [1, 4]: 123 ng/mL
- concentration at 3.75 h [1, 5]: 102 ng/mL
- Penetration of the BBB / CNS (in words) ([1]; rat): penetrates freely across the BBB
- Kp"brain" (total brain/plasma concentration ratio at steady state) ([1]; rat, individual rats): 33.57 and 34.13
- IC50 (NMDAR): 1 µM

Source: patent US10538482B2, “Adamantane and memantine derivatives as peripheral NMDA receptor antagonists” (Institut National de la Santé et de la Recherche Médicale …, priority 2015, dated 2020)
